Test results: US9790233B2, “Compositions and methods of modulating 15-PGDH activity” (CASE WESTERN RESERVE UNIVERSITY, priority 2012, dated 2017)
Read-outs that look alike come from different tables or passages of the source.

Tests used:
[1] = test system: wild-type mouse bone marrow; experiment: Hematopoietic colonies from bone marrow treated ex vivo; format: cell-based; details: 1 uM, ex vivo on ice 2 hours
Excerpt: Treated marrow is again then plated into methylcellulose for counting of hematopoietic colonies.

[2] = molecular target: T1, 15-PGDH protein (Homo sapiens (Human), UniProt P15428); experiment: Inhibition of enzymatic activity of recombinant 15-PGDH in vitro (tritium transfer from PGE2 or NADH fluorescence); format: biochemical; details: for IC50: read-out: IC50
[3] = test system: 15-PGDH luciferase fusion construct in V9m reporter cell line; experiment: 15-PGDH-luciferase fusion gene reporter induction, V9m cells; format: cell-based; details: % induction of luciferase activity over basal level
[4] = test system: 15-PGDH luciferase fusion construct in LS174T reporter cell line; experiment: 15-PGDH-luciferase fusion gene reporter induction, LS174T cells; format: cell-based; details: Homo sapiens
[5] = test system: 15-PGDH luciferase fusion construct in Vaco503 reporter cell line; experiment: 15-PGDH-luciferase fusion gene reporter induction, V503 cells; format: cell-based; details: read-out: V503-3H9-7 reporter activity, % ([…]), V503 reporter cells, […] compound, % induction of luciferase activity over basal level
[6] = test system: 15-PGDH-luciferase fusion reporter in V9m, LS174T and V503 cells; experiment: 15-PGDH-luciferase fusion gene reporter induction, stated for the three cell line backgrounds together; format: cell-based; details: FIG. 1
[7] = molecular target: T1, 15-PGDH protein; experiment: Shift of melting temperature of recombinant 15-PGDH (SYPRO Orange); format: binding; details: FIG. 14
[8] = test system: A549 cells; experiment: PGE2 levels in the medium of IL1-beta stimulated A549 cells; format: cell-based;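 further: PGE2 in the collected culture medium quantified by enzyme immunoassay (ELISA), with data drawn from three independent experiments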
[9] = Metabolic stability with murine liver S9; format: in vitro ADME; details: mouse, liver S9 fraction; Murine S9 fraction, Phase I cofactors, 0-240 minutes
Protocol: SW054384 (2 mM in DMSO) was incubated with Murine S9 (Lot KWB) fraction and Phase I (NADPH Regenerating System) cofactors for 0-240 minutes. Reactions were quenched with a 1 mL (1:1) of MeOH/(+)IS/0.2% Formic Acid, vortexed for 15 seconds, incubated at RT for 10 minutes and spun for 5 minutes at 2400 rpms. […] Supernatant (800 μL) was transferred to an HPLC vial (w/out insert) and analyzed by HPLC/MS. A: dH2O+0.1% FA B: MeOH+0.1% FA
SW125991 (2 mM in DMSO) was incubated with Murine S9 (Lot KWB) fraction and Phase I (NADPH Regenerating System) cofactors for 0-240 minutes. Reactions were quenched with 1 mL (1:1) of methanol containing 0.2% formic acid and 100 ng/ml IS (IS final conc.=50 ng/ml). Samples were vortexed for 15 seconds, incubated at RT for 10 minutes and spun for 5 minutes at 2400 rpm. […] Supernatant (800 μL) was transferred to an HPLC vial (w/out insert). Analyzed by Qtrap 3200 mass spectrometer.

[10] = molecular target: T1, 15-PGDH protein; experiment: 15-PGDH protein levels in treated cells (western blot, immuno-fluorescence); format: cell-based; details: […] compound for 48 hours; colon cell lines
[11] = test system: 15-PGDH mRNA; experiment: 15-PGDH mRNA levels by real-time PCR; format: cell-based; details: treated colon cancer cell lines

T1 sequence (P15428 whole entry, the tested form may be a part): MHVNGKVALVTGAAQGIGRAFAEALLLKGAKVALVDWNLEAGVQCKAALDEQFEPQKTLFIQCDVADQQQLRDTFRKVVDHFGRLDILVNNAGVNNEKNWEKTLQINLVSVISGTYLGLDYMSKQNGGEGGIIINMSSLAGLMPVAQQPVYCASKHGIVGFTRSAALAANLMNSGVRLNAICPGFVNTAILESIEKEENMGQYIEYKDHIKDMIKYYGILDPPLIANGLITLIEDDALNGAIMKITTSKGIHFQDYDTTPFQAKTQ

Structure (SMILES)	increase in bone marrow derived colonies relative to SW033291 [1]	IC50 higher than that of SW033291 [2]	IC50 ([2]; 15-PGDH-GST fusion protein, FIG. 11) [µM]	IC50 ([2]; fluorescent based assay, FIG. 12) [µM]	IC50 ([2]; tritium assay, FIG. 12) [µM]	activation at […] ([3]; read-out: V9M-SC3 Reporter activity ([…]) (%), V9m reporter cells, […] compound, read-out: V9M-SC3 Reporter activity (2.5 μM) (%)) [%]	activation at […] ([3]; read-out: V9M-SC3 Reporter activity ([…]), %, V9m reporter cells, […] compound, read-out: V9M-SC3 Reporter activity (7.5 μM), %) [%]	activation at […] ([4]; read-out: Ls174T-SC1 reporter activity, % ([…]), LS174T reporter cells, […] compound, % induction of luciferase activity over basal level, read-out: Ls174T-SC1 reporter activity, % (2.5 μM)) [%]	activation at […] ([4]; read-out: Ls174T-SC1 reporter activity, % ([…]), LS174T reporter cells, […] compound, % induction of luciferase activity over basal level, read-out: Ls174T-SC1 reporter activity, % (7.5 μM)) [%]	activation at […] ([5]; read-out: V503-3H9-7 reporter activity, % (2.5 μM)) [%]	activation at […] ([5]; read-out: V503-3H9-7 reporter activity, % (7.5 μM)) [%]	concentration of maximum reporter activity [6] [µM]	luciferase activity of cells expressing 15-PGDH luciferase fusion construct ([6]; V9m, LS174T, V503)	direct binding to recombinant 15-PGDH (melting temperature shift) [7]	lowering of PGE2 levels in media [8]	PGE2 levels in medium ([8]; compound added 24 hours before IL1-beta, maintained 26 hours with IL1-beta)	Decrease PGE-2 (IL-1beta-A549, %) ([8]; media of IL-1beta stimulated A549 cells) [%]	half-life [9] [min]	levels of 15-PGDH protein (western blot) [10]	15-PGDH mRNA levels (real-time PCR) [11]
CCCCC[C@H](O)/C=C/[C@H]1[C@H](O)CC(=O)[C@@H]1C/C=C\CCCC(=O)O [PGE2, prostaglandin E2]	lesser increase																			
COc1ccc(OC)c(N(CC(=O)Nc2cccnc2)S(=O)(=O)c2ccccc2)c1 [SW054384]		10,000 fold	5 to 50	11	8.4	116	148	130	156	149	157	6.25	increase luciferase activity	cannot be demonstrated to bind 15-PGDH	show activity in lowering PGE2	lower level of PGE2 produced	41.96	21.7	increase levels of 15-PGDH protein	do not in general alter 15-PGDH mRNA levels
CCCCC(C)(C)[C@H](O)/C=C/[C@H]1[C@H](O)CC(=O)[C@@H]1C/C=C\CCCC(=O)O [dmPGE2, 16,16-dimethyl PGE2]	slightly greater increase																			
